Experimental data reported in patent publication US20230399312A1, “SUBSTITUTED PYRIMIDINES AND METHODS OF USE” (THERAVANCE BIOPHARMA R&D IP, LLC, priority 2020, published 2023).

What was measured:
[1] = tested on: TGF-β-stimulated SMAD3 phosphorylation in BEAS-2B cells; assay: Cellular ALK5 potency assay, inhibition of TGF-β stimulated pSMAD3 formation in BEAS-2B cells; assay type: cell-based; conditions: Homo sapiens, pSMAD3, TGF-β 10 ng/mL, read-out: BEAS2B pIC50 (converted)
How it was run: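 Human lung epithelial BEAS-2B cells were pre-treated with compound for 1 h at 37 °C, then stimulated with TGF-β (final 10 ng/mL) for 30 min before lysis. pSMAD3 was quantified by AlphaLISA and pIC50 derived from dose-dependent signal change versus TGF-β-stimulated untreated cells.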

[2] = molecular target: T1, recombinant human ALK5 (TGF-βR1) protein (Homo sapiens, UniProt P36897); assay: Biochemical ALK5 (TGF-βR1) assay to measure pKi (LANCE Ultra ULight kinase assay); conditions: apparent pKi, converted from pIC50 by Cheng-Prusoff
T1 construct: purchased Life Technologies PR9075A
T1 sequence (P36897 34-503): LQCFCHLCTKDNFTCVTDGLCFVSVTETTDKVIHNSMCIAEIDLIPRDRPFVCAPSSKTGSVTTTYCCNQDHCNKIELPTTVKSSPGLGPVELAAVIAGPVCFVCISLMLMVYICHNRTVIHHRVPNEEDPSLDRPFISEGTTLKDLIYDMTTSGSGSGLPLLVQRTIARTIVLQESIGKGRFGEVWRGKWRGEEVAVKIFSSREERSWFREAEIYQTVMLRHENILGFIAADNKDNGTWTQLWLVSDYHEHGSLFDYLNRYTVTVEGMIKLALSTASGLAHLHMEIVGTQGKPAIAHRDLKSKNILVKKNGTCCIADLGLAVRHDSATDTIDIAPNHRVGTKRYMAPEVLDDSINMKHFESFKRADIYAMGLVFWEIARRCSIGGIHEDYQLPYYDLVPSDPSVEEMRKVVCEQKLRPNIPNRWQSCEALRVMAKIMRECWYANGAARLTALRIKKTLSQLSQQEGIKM
How it was run: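 Read-out was LANCE Ultra TR-FRET with a europium anti-phospho-Topo IIα Thr1342 antibody after EDTA quench. Kinase reaction ran 60 min at 37 °C with ATP added from a 125 μM 5× stock, after 60 min compound–enzyme equilibration at room temperature. Values are pKi from Cheng-Prusoff conversion of fitted pIC50.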

Cc1cccc(-c2nccc(Nc3ccnc(Nc4ccc(CN5CC6CCC(C5)O6)cc4)n3)n2)n1 [Compound 395, N4-[2-(6-methyl-2-pyridyl)pyrimidin-4-yl]-N2-[4-(8-oxa-3-azabicyclo[3.2.1]octan-3-ylmethyl)phenyl]pyrimidine-2,4-diamine]
IC50 [1]: 25.1 to 158 nM | Ki [2]: 0.0398 to 0.316 nM

Cc1cccc(-c2nccc(Nc3ccnc(Nc4cccc(C(=O)N5CCN(C)CC5)c4)n3)n2)n1 [Compound 396, (4-methylpiperazin-1-yl)-[3-[[4-[[2-(6-methyl-2-pyridyl)pyrimidin-4-yl]amino]pyrimidin-2-yl]amino]phenyl]methanone]
IC50 [1]: 25.1 to 158 nM | Ki [2]: 0.398 to 3.16 nM

Cc1cccc(-c2nccc(Nc3ccnc(Nc4ccc(N5CCC(N6CCOCC6)CC5)cc4)n3)n2)n1 [Compound 397, N4-[2-(6-methyl-2-pyridyl)pyrimidin-4-yl]-N2-[4-(4-morpholino-1-piperidyl)phenyl]pyrimidine-2,4-diamine]
IC50 [1]: 25.1 to 158 nM | Ki [2]: 0.0398 to 0.316 nM

Fc1ccc(Cl)cc1-c1nccc(Nc2ccnc(Nc3ccc(N4CCNCC4)cc3)n2)n1 [Compound 398, N4-[2-(5-chloro-2-fluoro-phenyl)pyrimidin-4-yl]-N2-(4-piperazin-1-ylphenyl)pyrimidine-2,4-diamine]
IC50 [1]: 25.1 to 158 nM | Ki [2]: 0.0398 to 0.316 nM

Fc1ccccc1-c1nccc(Nc2ccnc(Nc3ccc(N4CCOCC4)cc3)n2)n1 [Compound 399, N4-[2-(2-fluorophenyl)pyrimidin-4-yl]-N2-(4-morpholinophenyl)pyrimidine-2,4-diamine]
IC50 [1]: 25.1 to 158 nM | Ki [2]: 3.98 to 31.6 nM

Cc1cccc(-c2nccc(Nc3ccnc(Nc4ccc(CN5CCC[C@@H](C(=O)OCC6CNC6)C5)cc4)n3)n2)n1 [Compound 400, azetidin-3-ylmethyl (R)-1-(4-((4-((2-(6-methylpyridin-2-yl)pyrimidin-4-yl)amino)pyrimidin-2-yl)amino)benzyl)piperidine-3-carboxylate]
IC50 [1]: 25.1 to 158 nM | Ki [2]: 0.0398 to 0.316 nM

COCCc1ccc(Nc2nccc(Nc3ccnc(-c4cccc(C)n4)n3)n2)cc1 [Compound 401, N2-[4-(2-methoxyethyl)phenyl]-N4-[2-(6-methyl-2-pyridyl)pyrimidin-4-yl]pyrimidine-2,4-diamine]
IC50 [1]: 25.1 to 158 nM | Ki [2]: 0.398 to 3.16 nM

Cc1cccc(-c2nccc(Nc3ccnc(Nc4ccc(N5CCNCC5CC(=O)OCC5CNC5)cc4)n3)n2)n1 (centres unmarked) [Compound 402, azetidin-3-ylmethyl 2-[1-[4-[[4-[[2-(6-methyl-2-pyridyl)pyrimidin-4-yl]amino]pyrimidin-2-yl]amino]phenyl]piperazin-2-yl]acetate]
IC50 [1]: 200 to 1260 nM | Ki [2]: 0.398 to 3.16 nM

Cc1cccc(-c2nccc(Nc3ccnc(Nc4ccc(N5CCN[C@@H](CO)C5)cc4)n3)n2)n1 [Compound 403, (R)-(4-(4-((4-((2-(6-methylpyridin-2-yl)pyrimidin-4-yl)amino)pyrimidin-2-yl)amino)phenyl)piperazin-2-yl)methanol]
IC50 [1]: 25.1 to 158 nM | Ki [2]: 0.0398 to 0.316 nM

Cc1cccc(-c2nccc(Nc3ccnc(Nc4nc(C(=O)N[C@@H]5CCNC5)cs4)n3)n2)n1 [Compound 404, 2-[[4-[[2-(6-methyl-2-pyridyl)pyrimidin-4-yl]amino]pyrimidin-2-yl]amino]-N-[(3R)-pyrrolidin-3-yl]thiazole-4-carboxamide]
IC50 [1]: 25.1 to 158 nM | Ki [2]: ≤ 0.0316 nM

Cc1cccc(-c2nccc(Nc3ccnc(Nc4ccc(CN5CCC(O)CC5)cc4)n3)n2)n1 [Compound 405, 1-[[4-[[4-[[2-(6-methyl-2-pyridyl)pyrimidin-4-yl]amino]pyrimidin-2-yl]amino]phenyl]methyl] piperidin-4-ol]
IC50 [1]: 25.1 to 158 nM | Ki [2]: ≤ 0.0316 nM

Cc1cccc(-c2nccc(Nc3ccnc(Nc4ccc(C(=O)O)cc4)n3)n2)n1 [Compound 406, 4-[[4-[[2-(6-methyl-2-pyridyl)pyrimidin-4-yl]amino]pyrimidin-2-yl]amino]benzoic acid]
IC50 [1]: 200 to 1260 nM | Ki [2]: 0.398 to 3.16 nM

Cc1cccc(-c2nccc(Nc3ccnc(Nc4ccc(S(=O)(=O)N5CCOCC5)cc4)n3)n2)n1 [Compound 407, N4-[2-(6-methyl-2-pyridyl)pyrimidin-4-yl]-N2-(4-morpholinosulfonylphenyl) pyrimidine-2,4-diamine]
IC50 [1]: 25.1 to 158 nM | Ki [2]: 0.0398 to 0.316 nM

Fc1ccc(Cl)cc1-c1nccc(Nc2ccnc(Nc3ccc(NCCN4CCOCC4)cc3)n2)n1 [Compound 408, N4-[2-(5-chloro-2-fluoro-phenyl)pyrimidin-4-yl]-N2-[4-(2-morpholinoethylamino)phenyl] pyrimidine-2,4-diamine]
IC50 [1]: 25.1 to 158 nM | Ki [2]: 0.398 to 3.16 nM

Cc1cccc(-c2nccc(Nc3ccnc(Nc4ccc(CN5[C@@H](C)CNC[C@@H]5C)cc4)n3)n2)n1 [Compound 409, N2-[4-[[(2S,6S)-2,6-dimethylpiperazin-1-yl]methyl]phenyl]-N4-[2-(6-methyl-2-pyridyl)pyrimidin-4-yl]pyrimidine-2,4-diamine]
IC50 [1]: 25.1 to 158 nM | Ki [2]: 0.0398 to 0.316 nM

Cc1cccc(-c2nccc(Nc3ccnc(Nc4ccc(N5CCOCC5)cc4O)n3)n2)n1 [Compound 410, 2-[[4-[[2-(6-methyl-2-pyridyl)pyrimidin-4-yl]amino]pyrimidin-2-yl]amino]-5-morpholino-phenol]
IC50 [1]: 25.1 to 158 nM | Ki [2]: 3.98 to 31.6 nM

COC(=O)CC1CN(Cc2cccc(Nc3nccc(Nc4ccnc(-c5cccc(C)n5)n4)n3)c2)CCN1 (centres unmarked) [Compound 411, methyl 2-[4-[[3-[[4-[[2-(6-methyl-2-pyridyl)pyrimidin-4-yl]amino]pyrimidin-2-yl]amino]phenyl]methyl]piperazin-2-yl]acetate]
IC50 [1]: 25.1 to 158 nM | Ki [2]: 0.0398 to 0.316 nM

Fc1ccc(Cl)cc1-c1nccc(Nc2ccnc(Nc3ccc(N4CCC(N5CCCC5)CC4)cc3)n2)n1 [Compound 412, N4-[2-(5-chloro-2-fluoro-phenyl)pyrimidin-4-yl]-N2-[4-(4-pyrrolidin-1-yl-1-piperidyl)phenyl]pyrimidine-2,4-diamine]
IC50 [1]: 25.1 to 158 nM | Ki [2]: 0.0398 to 0.316 nM

Cc1cccc(-c2nccc(Nc3ccnc(Nc4ccc(NS(=O)(=O)C5CCNC5)cc4)n3)n2)n1 (centres unmarked) [Compound 413, N-[4-[[4-[[2-(6-methyl-2-pyridyl)pyrimidin-4-yl]amino]pyrimidin-2-yl]amino]phenyl]pyrrolidine-3-sulfonamide]
IC50 [1]: 200 to 1260 nM | Ki [2]: 0.398 to 3.16 nM

Cc1cccc(-c2nccc(Nc3ccnc(Nc4ccc(CN5CCC(C(=O)O[C@@H]6CCN(C)C6)CC5)cc4)n3)n2)n1 [Compound 414, (R)-1-methylpyrrolidin-3-yl 1-(4-((4-((2-(6-methylpyridin-2-yl)pyrimidin-4-yl)amino)pyrimidin-2-yl)amino)benzyl)piperidine-4-carboxylate]
IC50 [1]: 25.1 to 158 nM | Ki [2]: 0.0398 to 0.316 nM

CN(C)C1CCN(c2ccc(Nc3nccc(Nc4ccnc(-c5cc(Cl)ccc5F)n4)n3)cc2)CC1 [Compound 415, N4-[2-(5-chloro-2-fluoro-phenyl)pyrimidin-4-yl]-N2-[4-[4-(dimethylamino)-1-piperidyl]phenyl]pyrimidine-2,4-diamine]
IC50 [1]: 25.1 to 158 nM | Ki [2]: 0.0398 to 0.316 nM

Cc1cccc(-c2nccc(Nc3ccnc(Nc4ccc(N(C)C(=O)C5CCNCC5)cc4)n3)n2)n1 [Compound 416, N-methyl-N-[4-[[4-[[2-(6-methyl-2-pyridyl)pyrimidin-4-yl]amino]pyrimidin-2-yl]amino]phenyl]piperidine-4-carboxamide]
IC50 [1]: 200 to 1260 nM | Ki [2]: 0.0398 to 0.316 nM
